From paper PMC9863297, “Intermolecular Interactions of Edaravone in Aqueous Solutions of Ethaline and Glyceline Inferred from Experiments and Quantum Chemistry Computations” (Molecules, 2023)
≈ marks a conversion by molar mass, not a printed value. Like-named read-outs stand apart in the source and are kept apart here.

Assay: Edaravone solubility, slurry/shake-flask method with spectrophotometric determination at 243 nm
Type: physicochemical
Settings: for solubility at 24 h: read-out: cE solubility concentration; for volume of saturated solution containing the recommended 60 mg: solubility at 298.15 K
Method: The first step in obtaining a calibration curve was the preparation of a stock solution of edaravone with a concentration of 2.3 mg/mL. This initial solution was successfully diluted in 10 mL volumetric flasks with methanol and the obtained solutions with decreasing concentrations were measured spectrophotometrically. […] Three separate curves were obtained, and the final curve resulted from averaging. […] The limits of detection (LOD) and quantification (LOQ) were calculated as 5.899∙10^−4 mg/mL and 1.770∙10^−3 mg/mL, respectively.
All of the studied deep eutectic solvents included choline chloride, while the second constituent was either glycerol or ethylene glycol. In order to prepare a DES formulation, choline chloride was mixed with the second compound in different molar ratios in sealed test tubes and placed in a water bath at 363.15 K until the formation of a uniform solution. The obtained DES were either used in their neat form or water was added to them in different proportions in order to form binary systems.
During the next stage, edaravone was added in excess amounts to the test tubes containing both neat DES and binary mixtures, which enabled us to obtain its saturated solutions. Samples prepared in such a manner were placed in an Orbital Shaker Incubator ES-20/60 from Biosan (Riga, Latvia) and incubated for 24 h at different temperatures, namely 298.15 K, 303.15 K, 308.15 K and 313.15 K. The temperature adjustment accuracy was 0.1 K and its variability in a 24 h cycle was ±0.5 K. Apart from heating, all of the samples were mixed at 60 rev/min. The increased viscosity and density of DES systems required the samples to be centrifuged at 1000 rev/min for 5 min with the use of EBA 20 centrifuge from Hettich (Tuttlingen, Germany) enabling the undissolved precipitate to remain on the bottom of the test tubes. Next, the samples were filtered using a syringe equipped with a PTFE syringe filer with 0.22 µm pore size. In order to avoid precipitation, the test tubes, syringes and filters were initially heated at a temperature equal to the one of the handled samples. Finally, small amounts of the obtained filtrate were transferred to test tubes filled with methanol and the diluted samples were measured spectrophotometrically. Additionally, for the determination of the mole fractions of edaravone, the density of the samples was measured by weighing a fixed volume of the solution in 10 mL volumetric flasks.
For determining the solubility of edaravone in the studied systems, the samples prepared, as described above, were measured spectrophotometrically using an A360 spectrophotometer from AOE Instruments (Shanghai, China). The spectra were recorded in the 190 nm to 500 nm wavelength range and 1 nm resolution. Methanol was used for the initial calibration of the spectrophotometer and for the dilution of the measured samples, which was conducted in order for the absorbance values to remain below 2.5. The absorbance values at 243 nm were taken into account and based on the calibration curve prepared earlier, the concentration of edaravone in the samples was determined, followed by its mole fractions. The values were averaged from three separate measurements.

CC1=NN(c2ccccc2)C(=O)C1 [edaravone, 5-methyl-2-phenyl-4H-pyrazol-3-one]
xE mole fraction solubility (neat DES choline chloride + glycerol (GLE) 1:2 molar ratio (x*GLE = 1.0), 303.15 K): 1606.43 (±50.52) mole fraction ∙10^4 | xE mole fraction solubility (neat DES choline chloride + glycerol (GLE) 1:2 molar ratio (x*GLE = 1.0), 308.15 K): 2151.57 (±64.56) mole fraction ∙10^4 | xE mole fraction solubility (neat DES choline chloride + glycerol (GLE) 1:2 molar ratio (x*GLE = 1.0), 313.15 K): 2991.42 (±64.1) mole fraction ∙10^4 | xE mole fraction solubility (neat DES choline chloride + glycerol (GLE) 1:4 molar ratio, 298.15 K): 926.44 (±23.62) mole fraction ∙10^4 | xE mole fraction solubility (neat DES choline chloride + glycerol (GLE) 1:4 molar ratio, 303.15 K): 1321.28 (±36.17) mole fraction ∙10^4 | xE mole fraction solubility (neat DES choline chloride + glycerol (GLE) 1:4 molar ratio, 308.15 K): 1861.97 (±40.45) mole fraction ∙10^4 | xE mole fraction solubility (neat DES choline chloride + glycerol (GLE) 1:4 molar ratio, 313.15 K): 2739.72 (±65.05) mole fraction ∙10^4 | solubility at 24 h (neat deep eutectic solvent, 25 °C, organic solvent or mixture, thermodynamic from solid, neat DES choline chloride + ethylene glycol (ETA) 1:1 molar ratio, 298.15 K): 190 mg/mL | solubility at 24 h (neat deep eutectic solvent, 25 °C, organic solvent or mixture, thermodynamic from solid, neat DES choline chloride + ethylene glycol (ETA) 1:2 molar ratio (x*ETA = 1.0), 298.15 K): 303 mg/mL | solubility at 24 h (neat deep eutectic solvent, 25 °C, organic solvent or mixture, thermodynamic from solid, neat DES choline chloride + ethylene glycol (ETA) 1:4 molar ratio, 298.15 K): 280 mg/mL | solubility at 24 h (neat deep eutectic solvent, 25 °C, organic solvent or mixture, thermodynamic from solid, neat DES choline chloride + glycerol (GLE) 1:1 molar ratio, 298.15 K): 138 mg/mL | solubility at 24 h (neat deep eutectic solvent, 30 °C, organic solvent or mixture, thermodynamic from solid, neat DES choline chloride + ethylene glycol (ETA) 1:1 molar ratio, 303.15 K): 252 mg/mL | solubility at 24 h (neat deep eutectic solvent, 30 °C, organic solvent or mixture, thermodynamic from solid, neat DES choline chloride + ethylene glycol (ETA) 1:2 molar ratio (x*ETA = 1.0), 303.15 K): 392 mg/mL | solubility at 24 h (neat deep eutectic solvent, 30 °C, organic solvent or mixture, thermodynamic from solid, neat DES choline chloride + ethylene glycol (ETA) 1:4 molar ratio, 303.15 K): 347 mg/mL | solubility at 24 h (neat deep eutectic solvent, 35 °C, organic solvent or mixture, thermodynamic from solid, neat DES choline chloride + ethylene glycol (ETA) 1:1 molar ratio, 308.15 K): 360 mg/mL | solubility at 24 h (neat deep eutectic solvent, 35 °C, organic solvent or mixture, thermodynamic from solid, neat DES choline chloride + ethylene glycol (ETA) 1:2 molar ratio (x*ETA = 1.0), 308.15 K): 499 mg/mL | solubility at 24 h (neat deep eutectic solvent, 35 °C, organic solvent or mixture, thermodynamic from solid, neat DES choline chloride + ethylene glycol (ETA) 1:4 molar ratio, 308.15 K): 467 mg/mL | solubility at 24 h (neat deep eutectic solvent, 40 °C, organic solvent or mixture, thermodynamic from solid, neat DES choline chloride + ethylene glycol (ETA) 1:1 molar ratio, 313.15 K): 484 mg/mL | solubility at 24 h (neat deep eutectic solvent, 40 °C, organic solvent or mixture, thermodynamic from solid, neat DES choline chloride + ethylene glycol (ETA) 1:2 molar ratio (x*ETA = 1.0), 313.15 K): 593 mg/mL | solubility at 24 h (neat deep eutectic solvent, 40 °C, organic solvent or mixture, thermodynamic from solid, neat DES choline chloride + ethylene glycol (ETA) 1:4 molar ratio, 313.15 K): 602 mg/mL | xE mole fraction solubility (neat water (x*DES = 0.0), 298.15 K): 1.73(±0.01) mole fraction ∙10^4 | xE mole fraction solubility (neat water (x*DES = 0.0), 303.15 K): 1.78(±0.01) mole fraction ∙10^4 | xE mole fraction solubility (neat water (x*DES = 0.0), 308.15 K): 1.84(±0.02) mole fraction ∙10^4 | xE mole fraction solubility (neat water (x*DES = 0.0), 313.15 K): 1.93(±0.01) mole fraction ∙10^4 | mole fraction solubility ratio, ethylene glycol system vs glycerol system (optimal 1:2 composition, average over temperatures): 1.34 times | volume of saturated solution containing the recommended 60 mg (optimal aqueous composition ETA): 0.14 mL | volume of saturated solution containing the recommended 60 mg (optimal aqueous composition GLE): 0.18 mL | solubility increase in optimal binary composition compared to neat DES (systems with ethylene glycol, x*DES = 0.6, average): 17% | xE mole fraction solubility (water + ETA (ChCl:EG 1:2), x*ETA = 0.2, 298.15 K): 454.10(±5.48) mole fraction ∙10^4 | xE mole fraction solubility (water + ETA (ChCl:EG 1:2), x*ETA = 0.2, 303.15 K): 574.18(±8.89) mole fraction ∙10^4 | xE mole fraction solubility (water + ETA (ChCl:EG 1:2), x*ETA = 0.2, 308.15 K): 742.26(±18.45) mole fraction ∙10^4 | xE mole fraction solubility (water + ETA (ChCl:EG 1:2), x*ETA = 0.2, 313.15 K): 890.33(±10.84) mole fraction ∙10^4 | xE mole fraction solubility (water + ETA (ChCl:EG 1:2), x*ETA = 0.4, 298.15 K): 1353.93(±5.00) mole fraction ∙10^4 | xE mole fraction solubility (water + ETA (ChCl:EG 1:2), x*ETA = 0.4, 303.15 K): 1819.02(±41.45) mole fraction ∙10^4 | xE mole fraction solubility (water + ETA (ChCl:EG 1:2), x*ETA = 0.4, 308.15 K): 2386.29(±27.09) mole fraction ∙10^4 | xE mole fraction solubility (water + ETA (ChCl:EG 1:2), x*ETA = 0.4, 313.15 K): 2954.32(±49.04) mole fraction ∙10^4 | xE mole fraction solubility (water + ETA (ChCl:EG 1:2), x*ETA = 0.5, 298.15 K): 1754.56(±31.02) mole fraction ∙10^4 | xE mole fraction solubility (water + ETA (ChCl:EG 1:2), x*ETA = 0.5, 303.15 K): 2316.25(±38.27) mole fraction ∙10^4 | xE mole fraction solubility (water + ETA (ChCl:EG 1:2), x*ETA = 0.5, 308.15 K): 3073.71(±53.04) mole fraction ∙10^4 | xE mole fraction solubility (water + ETA (ChCl:EG 1:2), x*ETA = 0.5, 313.15 K): 3822.75(±61.93) mole fraction ∙10^4 | xE mole fraction solubility (water + ETA (ChCl:EG 1:2), x*ETA = 0.6, 298.15 K): 1934.93(±34.18) mole fraction ∙10^4 | xE mole fraction solubility (water + ETA (ChCl:EG 1:2), x*ETA = 0.6, 303.15 K): 2552.36(±52.56) mole fraction ∙10^4 | xE mole fraction solubility (water + ETA (ChCl:EG 1:2), x*ETA = 0.6, 308.15 K): 3306.79(±48.29) mole fraction ∙10^4 | xE mole fraction solubility (water + ETA (ChCl:EG 1:2), x*ETA = 0.6, 313.15 K): 3982.72(±70.26) mole fraction ∙10^4 | xE mole fraction solubility (water + ETA (ChCl:EG 1:2), x*ETA = 0.8, 298.15 K): 1713.96(±31.15) mole fraction ∙10^4 | xE mole fraction solubility (water + ETA (ChCl:EG 1:2), x*ETA = 0.8, 303.15 K): 2241.64(±42.78) mole fraction ∙10^4 | xE mole fraction solubility (water + ETA (ChCl:EG 1:2), x*ETA = 0.8, 308.15 K): 2989.20(±42.33) mole fraction ∙10^4 | xE mole fraction solubility (water + ETA (ChCl:EG 1:2), x*ETA = 0.8, 313.15 K): 3720.80(±28.54) mole fraction ∙10^4 | xE mole fraction solubility (water + GLE (ChCl:GL 1:2), x*GLE = 0.2, 298.15 K): 235.51(±9.67) mole fraction ∙10^4 | xE mole fraction solubility (water + GLE (ChCl:GL 1:2), x*GLE = 0.2, 303.15 K): 309.2(±4.30) mole fraction ∙10^4 | xE mole fraction solubility (water + GLE (ChCl:GL 1:2), x*GLE = 0.2, 308.15 K): 435.07(±4.04) mole fraction ∙10^4 | xE mole fraction solubility (water + GLE (ChCl:GL 1:2), x*GLE = 0.2, 313.15 K): 564.61(±7.05) mole fraction ∙10^4 | xE mole fraction solubility (water + GLE (ChCl:GL 1:2), x*GLE = 0.4, 298.15 K): 743.88(±5.92) mole fraction ∙10^4 | xE mole fraction solubility (water + GLE (ChCl:GL 1:2), x*GLE = 0.4, 303.15 K): 1116.64(±2.70) mole fraction ∙10^4 | xE mole fraction solubility (water + GLE (ChCl:GL 1:2), x*GLE = 0.4, 308.15 K): 1444.07(±14.86) mole fraction ∙10^4 | xE mole fraction solubility (water + GLE (ChCl:GL 1:2), x*GLE = 0.4, 313.15 K): 2014.09(±17.34) mole fraction ∙10^4 | xE mole fraction solubility (water + GLE (ChCl:GL 1:2), x*GLE = 0.5, 298.15 K): 1121.47(±10.85) mole fraction ∙10^4 | xE mole fraction solubility (water + GLE (ChCl:GL 1:2), x*GLE = 0.5, 303.15 K): 1673.69(±20.61) mole fraction ∙10^4 | xE mole fraction solubility (water + GLE (ChCl:GL 1:2), x*GLE = 0.5, 308.15 K): 2236.41(±28.00) mole fraction ∙10^4 | xE mole fraction solubility (water + GLE (ChCl:GL 1:2), x*GLE = 0.5, 313.15 K): 3065.17(±55.82) mole fraction ∙10^4 | xE mole fraction solubility (water + GLE (ChCl:GL 1:2), x*GLE = 0.6, 298.15 K): 1450.22(±11.26) mole fraction ∙10^4 | xE mole fraction solubility (water + GLE (ChCl:GL 1:2), x*GLE = 0.6, 303.15 K): 2089.77(±58.10) mole fraction ∙10^4 | xE mole fraction solubility (water + GLE (ChCl:GL 1:2), x*GLE = 0.6, 308.15 K): 2723.73(±61.99) mole fraction ∙10^4 | xE mole fraction solubility (water + GLE (ChCl:GL 1:2), x*GLE = 0.6, 313.15 K): 3567.08(±42.51) mole fraction ∙10^4 | xE mole fraction solubility (water + GLE (ChCl:GL 1:2), x*GLE = 0.8, 298.15 K): 1305.70(±26.15) mole fraction ∙10^4 | xE mole fraction solubility (water + GLE (ChCl:GL 1:2), x*GLE = 0.8, 303.15 K): 1852.98(±39.43) mole fraction ∙10^4 | xE mole fraction solubility (water + GLE (ChCl:GL 1:2), x*GLE = 0.8, 308.15 K): 2525.56(±24.65) mole fraction ∙10^4 | xE mole fraction solubility (water + GLE (ChCl:GL 1:2), x*GLE = 0.8, 313.15 K): 3420.95(±31.16) mole fraction ∙10^4 | solubility at 24 h (water, neat water (x*DES = 0.0), 298.15 K): 1.72 mg/mL (≈ 9.87 mM) | solubility at 24 h (water, neat water (x*DES = 0.0), 303.15 K): 1.79 mg/mL (≈ 10.3 mM) | solubility at 24 h (water, neat water (x*DES = 0.0), 308.15 K): 1.87 mg/mL (≈ 10.7 mM) | solubility at 24 h (water, neat water (x*DES = 0.0), 313.15 K): 1.96 mg/mL (≈ 11.3 mM)
